What was measured:
[1] = biological target: T1, Recombinant STAT3 protein (STAT3(G127-I722)) (Homo sapiens, UniProt P40763); assay: STAT3 Fluorescence Polarization (FP) Assay; format: binding; details: STAT3(G127-I722) 25 nM, probe 5-FAM-GpYLPQTV-NH2 2 nM, 45-minute incubation
T1 construct: Recombinant STAT3 protein (STAT3(G127-I722))
Procedure, shortened: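 STAT3(G127-I722), 25 nM, was mixed with 2 nM 5-FAM-GpYLPQTV-NH2 probe in HEPES pH 7.4 buffer with 1% DMSO and serially diluted compound. FP (mP) was read after 45 min at room temperature. IC50 came from nonlinear regression.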

[2] = biological target: T2, Recombinant STAT6 protein (STAT6(W123-T658)) (Homo sapiens, UniProt P42226); assay: STAT6 Fluorescence Polarization (FP) Assay; format: binding; details: STAT6(W123-T658) 250 nM, probe 5-FAM-ApYKPFQDLI-NH2 2 nM, 45-minute incubation
T2 construct: Recombinant STAT6 protein (STAT6(W123-T658))
T2 sequence (P42226 123-658): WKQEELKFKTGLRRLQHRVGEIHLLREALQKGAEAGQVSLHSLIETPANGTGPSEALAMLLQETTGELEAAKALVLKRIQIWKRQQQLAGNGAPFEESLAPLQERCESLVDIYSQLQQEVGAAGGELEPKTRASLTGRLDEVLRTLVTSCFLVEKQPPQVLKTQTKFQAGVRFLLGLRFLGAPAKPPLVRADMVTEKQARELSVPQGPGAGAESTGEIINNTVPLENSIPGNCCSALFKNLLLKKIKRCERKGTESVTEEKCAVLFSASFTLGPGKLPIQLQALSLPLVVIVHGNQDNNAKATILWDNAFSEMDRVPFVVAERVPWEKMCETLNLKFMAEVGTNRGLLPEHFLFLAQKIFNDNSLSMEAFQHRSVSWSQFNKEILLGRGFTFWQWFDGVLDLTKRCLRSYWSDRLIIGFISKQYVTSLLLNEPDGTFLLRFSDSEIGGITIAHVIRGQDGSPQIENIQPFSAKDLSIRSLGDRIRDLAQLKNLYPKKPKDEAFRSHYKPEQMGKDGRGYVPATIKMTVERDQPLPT
Procedure, shortened: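 Displacement of a fluorescent phosphotyrosine peptide (5-FAM-ApYKPFQDLI-NH2, 2 nM) from STAT6(W123-T658) (250 nM), 1% DMSO, pH 7.4 HEPES buffer. After 45 min at room temperature, polarization (mP) was plotted versus log compound concentration and fitted by nonlinear regression to give IC50.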

T1 sequence (P40763 127-722): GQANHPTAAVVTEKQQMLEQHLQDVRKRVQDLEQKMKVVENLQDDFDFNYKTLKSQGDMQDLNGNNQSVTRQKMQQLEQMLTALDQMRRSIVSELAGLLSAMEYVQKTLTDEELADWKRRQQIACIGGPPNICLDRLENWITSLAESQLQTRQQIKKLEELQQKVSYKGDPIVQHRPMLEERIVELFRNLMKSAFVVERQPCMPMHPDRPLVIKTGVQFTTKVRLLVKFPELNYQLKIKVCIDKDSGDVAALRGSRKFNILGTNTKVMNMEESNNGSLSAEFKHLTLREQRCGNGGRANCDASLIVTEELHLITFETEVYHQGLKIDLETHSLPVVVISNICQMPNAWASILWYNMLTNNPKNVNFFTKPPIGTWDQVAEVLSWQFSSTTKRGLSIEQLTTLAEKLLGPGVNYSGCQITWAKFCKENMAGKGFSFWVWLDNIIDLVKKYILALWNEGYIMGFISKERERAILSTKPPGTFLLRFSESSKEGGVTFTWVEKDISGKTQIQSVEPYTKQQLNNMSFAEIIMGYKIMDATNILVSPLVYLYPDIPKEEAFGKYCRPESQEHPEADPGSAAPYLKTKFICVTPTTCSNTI

| IC50 [1] | IC50 [2] | Compound |
| --- | --- | --- |
| ≤ 0.1 µM | 0.3 to 3 µM | CC(=O)N1CC[C@H]2CC[C@@H](C(=O)Nc3ccc(-c4ccccc4)cc3CC(N)=O)N2C(=O)[C@@H](NC(=O)c2cc3cc(C(F)(F)P(=O)(O)O)ccc3s2)C1 [Compound 177, ((2-(((5S,8S,10aR)-3-acetyl-8-((3-(2-amino-2-oxoethyl)-[1,1′-biphenyl]-4-yl)carbamoyl)-6-oxodecahydropyrrolo[1,2-a][1,5]diazocin-5-yl)carbamoyl)benzo[b]thiophen-5-yl)difluoromethyl)phosphonic acid] |
| 1 to 10 µM | 3 to 30 µM | CC(=O)N[C@H]1CCC[C@@H]1NC(=O)[C@@H]1CC[C@@H]2CCN(C(C)=O)C[C@H](NC(=O)c3cc4cc(C(F)(F)P(=O)(O)O)ccc4[nH]3)C(=O)N21 [Compound 32, ((2-(((5S,8S,10aR)-8-(((1S,2S)-2-acetamidocyclopentyl)carbamoyl)-3-acetyl-6-oxodecahydropyrrolo[1,2-a][1,5]diazocin-5-yl)carbamoyl)-1H-indol-5-yl)difluoromethyl)phosphonic acid] |
| 0.1 to 1 µM | 0.3 to 3 µM | COc1ccc(C2CN(C(=O)[C@@H]3CC[C@@H]4CCN(C(C)=O)C[C@H](NC(=O)c5cc6cc(C(F)(F)P(=O)(O)O)ccc6s5)C(=O)N43)C[C@@H]2C#N)cn1 (relative stereo) [Compound 147, ((2-(((5S,8S,10aR)-3-acetyl-8-((rel-trans)-3-cyano-4-(6-methoxypyridin-3-yl)pyrrolidine-1-carbonyl)-6-oxodecahydropyrrolo[1,2-a][1,5]diazocin-5-yl)carbamoyl)benzo[b]thiophen-5-yl)difluoromethyl)phosphonic acid] |
| > 10 µM | 0.3 to 3 µM | Cc1ccc2onc(C(=O)N3CC[C@H]4CC[C@@H](C(=O)N5CCOCC5)N4C(=O)[C@@H](NC(=O)c4ccc5c(C#N)cc(CP(=O)(O)O)cc5c4)C3)c2c1 [Compound 384, ((4-cyano-7-(((5S,8S, 10aR)-3-(5-methylbenzo[d]isoxazole-3-carbonyl)-8-(morpholine-4-carbonyl)-6-oxodecahydropyrrolo [1,2-a][1,5]diazocin-5-yl)carbamoyl)naphthalen-2-yl)methyl) phosphonic acid] |
| 1 to 10 µM | 0.3 to 3 µM | CC(=O)N1CC[C@H]2CC[C@@H](C(=O)N(C)c3cccc(C(F)F)c3)N2C(=O)[C@@H](NC(=O)c2cc3cc(C(F)(F)P(=O)(O)O)ccc3s2)C1 [Compound 201, ((2-(((5S,8S,10aR)-3-acetyl-8-((3-(difluoromethyl)phenyl)(methyl)carbamoyl)-6-oxodecahydropyrrolo[1,2-a][1,5]diazocin-5-yl)carbamoyl)benzo[b]thiophen-5-yl)difluoromethyl)phosphonic acid] |
| 1 to 10 µM | 0.3 to 3 µM | CC(=O)N1CC[C@H]2CC[C@@H](C(=O)N3CCCC3Cc3cccc(Cl)c3)N2C(=O)[C@@H](NC(=O)c2cc3cc(C(F)(F)P(=O)(O)O)ccc3[nH]2)C1 (stereo partly drawn) [Compound 132, ((2-(((5S,8S,10aR)-3-acetyl-8-(2-(3-chlorobenzyl)pyrrolidine-1-carbonyl)-6-oxodecahydropyrrolo[1,2-a][1,5]diazocin-5-yl)carbamoyl)-1H-indol-5-yl)difluoromethyl)phosphonic acid] |
| 1 to 10 µM | 0.3 to 3 µM | N#C[C@H]1CN(C(=O)[C@@H]2CC[C@@H]3CN(C(c4ccccc4)c4ccccc4)CC[C@H](NC(=O)c4ccc5ccc(C(F)(F)P(=O)(O)O)cc5c4)C(=O)N32)C[C@@H]1c1ccccc1 (relative stereo) [Compound 209, ((7-(((5S,8S,10aR)-2-benzhydryl-8-((rel-trans)-3-cyano-4-phenylpyrrolidine-1-carbonyl)-6-oxodecahydropyrrolo[1,2-a][1,4]diazocin-5-yl)carbamoyl)naphthalen-2-yl)difluoromethyl)phosphonic acid] |
| 1 to 10 µM | 3 to 30 µM | O=C(N[C@H]1CN(c2cc3ccccc3cn2)CC[C@H]2CC[C@@H](C(=O)N3CCOCC3)N2C1=O)c1ccc2ccc(C(F)P(=O)(O)O)cc2c1 (stereo partly drawn) [Compound 392, (fluoro(7-(((5S,8S, 10aR)-3-(isoquinolin-3-yl)-8-(morpholine-4-carbonyl)-6-oxodecahydropyrrolo [1,2-a][1,5]diazocin-5-yl)carbamoyl)naphthalen-2-yl)methyl)phosphonic acid] |
| 1 to 10 µM | ≤ 0.3 µM | N#C[C@@H]1CN(C(=O)[C@@H]2CC[C@@H]3CCN(CC(F)F)C[C@H](NC(=O)c4ccc5ccc(C(F)(F)P(=O)(O)O)cc5c4)C(=O)N32)C[C@H]1c1ccccc1 (single isomer, unassigned) [Compound 248, ((7-(((5S,8S,10aR)-8-((3S,4R or 3R,4S)-3-cyano-4-phenylpyrrolidine-1-carbonyl)-3-(2,2-difluoroethyl)-6-oxodecahydropyrrolo[1,2-a][1,5]diazocin-5-yl)carbamoyl)naphthalen-2-yl)difluoromethyl)phosphonic acid] |
| > 10 µM | 0.3 to 3 µM | Cc1ccc2onc(C(=O)N3CC[C@H]4CC[C@@H](C(=O)N5CCOCC5)N4C(=O)[C@@H](NC(=O)c4ccc5ncc(C(F)P(=O)(O)O)cc5c4)C3)c2c1 (stereo partly drawn) [Compound 376, (fluoro(6-(((5S,8S, 10aR)-3-(5-methylbenzo[d]isoxazole-3-carbonyl)-8-(morpholine-4-carbonyl)-6-oxodecahydropyrrolo [1,2-a][1,5]diazocin-5-yl)carbamoyl)quinolin-3-yl)methyl)phosphonic acid] |
| 1 to 10 µM | 0.3 to 3 µM | CC(=O)N1CC[C@H]2CC[C@@H](C(=O)N(C)C)N2C(=O)[C@@H](NC(=O)c2cc3cc(C(F)(F)P(=O)(O)O)ccc3[nH]2)C1 [Compound 29, ((2-(((5S,8S,10aR)-3-acetyl-8-(dimethylcarbamoyl)-6-oxodecahydropyrrolo[1,2-a][1,5]diazocin-5-yl)carbamoyl)-1H-indole-5-yl)difluoromethyl)phosphonic acid] |
| > 10 µM | > 30 µM | CC(=O)N1CC[C@H]2CC[C@@H](C(=O)N(C)c3ccccc3)N2C(=O)[C@@H](NC(=O)/C(C)=C/c2cccc(C(F)(F)P(=O)(O)O)c2)C1 [Compound 45, ((3-((E)-3-(((5S,8S,10aR)-3-acetyl-8-(methyl(phenyl)carbamoyl)-6-oxodecahydropyrrolo[1,2-a][1,5]diazocin-5-yl)amino)-2-methyl-3-oxoprop-1-en-1-yl)phenyl)difluoromethyl)phosphonic acid] |
| 0.1 to 1 µM | 0.3 to 3 µM | CC(=O)N1CC[C@H]2CC[C@@H](C(=O)N3CCOc4cc(-c5ccccc5)ccc43)N2C(=O)[C@@H](NC(=O)c2cc3cc(C(F)(F)P(=O)(O)O)ccc3s2)C1 [Compound 197, ((2-(((5S,8S,10aR)-3-acetyl-6-oxo-8-(7-phenyl-3,4-dihydro-2H-benzo[b][1,4]oxazine-4-carbonyl)decahydropyrrolo[1,2-a][1,5]diazocin-5-yl)carbamoyl)benzo[b]thiophen-5-yl)difluoromethyl)phosphonic acid] |
| 1 to 10 µM | 0.3 to 3 µM | CCN(C(=O)[C@@H]1CC[C@@H]2CCN(C(C)=O)C[C@H](NC(=O)c3cc4cc(C(F)(F)P(=O)(O)O)ccc4[nH]3)C(=O)N21)c1ccccc1 [Compound 169, ((2-(((5S,8S,10aR)-3-acetyl-8-(ethyl(phenyl)carbamoyl)-6-oxodecahydropyrrolo[1,2-a][1,5]diazocin-5-yl)carbamoyl)-1H-indol-5-yl)difluoromethyl)phosphonic acid] |
| 1 to 10 µM | ≤ 0.3 µM | N#CC1CN(C(=O)C2CCC3CCNCC(NC(=O)c4cc5cc(C(F)(F)P(=O)(O)O)ccc5s4)C(=O)N32)CC1c1ccccc1 (mixture of isomers) [Compound 10, ((2-(((5S,8S,10aR)-8-((rel-trans)-3-cyano-4-phenylpyrrolidine-1-carbonyl)-6-oxodecahydropyrrolo[1,2-a][1,5]diazocin-5-yl)carbamoyl)benzo[b]thiophen-5-yl)difluoromethyl)phosphonic Acid] |

| Compound | IC50 [1] | IC50 [2] |
| --- | --- | --- |
| CNC(=O)C[C@@H](Cc1ccc(OC)cc1)NC(=O)[C@@H]1CC[C@@H]2CCN(C(=O)c3n[nH]c4ccc(C)cc34)C[C@H](NC(=O)c3ccc4ccc(C(F)(F)P(=O)(O)O)cc4c3)C(=O)N21 [Compound 229, (difluoro(7-(((5S,8S,10aR)-8-(((R)-1-(4-methoxyphenyl)-4-(methylamino)-4-oxobutan-2-yl)carbamoyl)-3-(5-methyl-1H-indazole-3-carbonyl)-6-oxodecahydropyrrolo[1,2-a][1,5]diazocin-5-yl)carbamoyl)naphthalen-2-yl)methyl)phosphonic acid] | 1 to 10 µM | ≤ 0.3 µM |

— US20250179103A1, “6-OXODECAHYDROPYRROLO[1,2-A][1,5]DIAZOCINE AND 6-OXODECAHYDRO-4H-PYRROLO[2,1-D][1,5]THIAZOCINE DERIVATIVES AS STAT3 AND STAT6 MODULATORS FOR THE TREATMENT OF CANCER AND INFLAMMATORY CONDITIONS” (Recludix Pharma, Inc., priority 2022, published 2025)
